Test system: Metabolism protein genes
Assay: DNA chip mRNA expression in yeast, metabolism protein genes (Table 7)
Assay type: cell-based, Saccharomyces cerevisiae S288C
How it was run: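 Measured as treated-to-untreated fluorescence ratio on a full-genome yeast DNA chip. Cells (S288C, YPD, 25° C.) were exposed in log phase for two hours to one chemical, dosed to curb growth without killing.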

SMILES: Oc1cc(Cl)c(Cl)cc1Cl [(6), 2,4,5-trichlorophenol]
- The level of expressed mRNA in the presence of chemical substance/The level of expressed mRNA in the absence of chemical substance (yeast gene YAL012W): 1.6
- The level of expressed mRNA in the presence of chemical substance/The level of expressed mRNA in the absence of chemical substance (yeast gene YAL038W): 1.3
- The level of expressed mRNA in the presence of chemical substance/The level of expressed mRNA in the absence of chemical substance (yeast gene YBL001C): 2.4
- level of expressed mRNA in the presence/in the absence of chemical substance (yeast gene YBR003W): 1.2
- level of expressed mRNA in the presence/in the absence of chemical substance (yeast gene YBR011C): 2.0
- level of expressed mRNA in the presence/in the absence of chemical substance (yeast gene YBR020W): 0.8
- The level of expressed mRNA in the presence of chemical substance/The level of expressed mRNA in the absence of chemical substance (yeast gene YBR023C): 0.5
- The level of expressed mRNA in the presence of chemical substance/The level of expressed mRNA in the absence of chemical substance (yeast gene YBR029C): 0.8
- The level of expressed mRNA in the presence of chemical substance/The level of expressed mRNA in the absence of chemical substance (yeast gene YBR111C): 3.0
- The level of expressed mRNA in the presence of chemical substance/The level of expressed mRNA in the absence of chemical substance (yeast gene YBR183W): 2.5
- The level of expressed mRNA in the presence of chemical substance/The level of expressed mRNA in the absence of chemical substance (yeast gene YBR222C): 1.3
- The level of expressed mRNA in the presence of chemical substance/The level of expressed mRNA in the absence of chemical substance (yeast gene YBR256C): 2.0
- The level of expressed mRNA in the presence of chemical substance/The level of expressed mRNA in the absence of chemical substance (yeast gene YCL009C): 1.8
- The level of expressed mRNA in the presence of chemical substance/The level of expressed mRNA in the absence of chemical substance (yeast gene YCL064C): 3.3
- level of expressed mRNA in the presence/in the absence of chemical substance (yeast gene YCR010C): 1.3
- level of expressed mRNA in the presence/in the absence of chemical substance (yeast gene YCR034W): 0.3
- The level of expressed mRNA in the presence of chemical substance/The level of expressed mRNA in the absence of chemical substance (yeast gene YCR048W): 0.2
- The level of expressed mRNA in the presence of chemical substance/The level of expressed mRNA in the absence of chemical substance (yeast gene YCR098C): 1.6
- The level of expressed mRNA in the presence of chemical substance/The level of expressed mRNA in the absence of chemical substance (yeast gene YDR009W): 2.4
- The level of expressed mRNA in the presence of chemical substance/The level of expressed mRNA in the absence of chemical substance (yeast gene YDR019C): 4.8
- level of expressed mRNA in the presence/in the absence of chemical substance (yeast gene YDR050C): 1.7
- level of expressed mRNA in the presence/in the absence of chemical substance (yeast gene YDR073W): 1.3
- level of expressed mRNA in the presence/in the absence of chemical substance (yeast gene YDR123C): 0.7
- level of expressed mRNA in the presence/in the absence of chemical substance (yeast gene YDR178W): 2.1
- level of expressed mRNA in the presence/in the absence of chemical substance (yeast gene YDR277C): 1.1
- level of expressed mRNA in the presence/in the absence of chemical substance (yeast gene YDR284C): 1.8
- level of expressed mRNA in the presence/in the absence of chemical substance (yeast gene YDR345C): 1.2
- The level of expressed mRNA in the presence of chemical substance/The level of expressed mRNA in the absence of chemical substance (yeast gene YDR380W): 0.4
- level of expressed mRNA in the presence/in the absence of chemical substance (yeast gene YDR400W): 1.1
- level of expressed mRNA in the presence/in the absence of chemical substance (yeast gene YDR408C): 0.9
- level of expressed mRNA in the presence/in the absence of chemical substance (yeast gene YDR483W): 1.5
- The level of expressed mRNA in the presence of chemical substance/The level of expressed mRNA in the absence of chemical substance (yeast gene YDR497C): 0.6
- The level of expressed mRNA in the presence of chemical substance/The level of expressed mRNA in the absence of chemical substance (yeast gene YDR502C): 1.5
- The level of expressed mRNA in the presence of chemical substance/The level of expressed mRNA in the absence of chemical substance (yeast gene YDR516C): 1.8
- level of expressed mRNA in the presence/in the absence of chemical substance (yeast gene YEL063C): 1.3
- The level of expressed mRNA in the presence of chemical substance/The level of expressed mRNA in the absence of chemical substance (yeast gene YER014W): 4.0
- level of expressed mRNA in the presence/in the absence of chemical substance (yeast gene YER015W): 0.9
- The level of expressed mRNA in the presence of chemical substance/The level of expressed mRNA in the absence of chemical substance (yeast gene YER026C): 2.5
- The level of expressed mRNA in the presence of chemical substance/The level of expressed mRNA in the absence of chemical substance (yeast gene YER053C): 2.8
- The level of expressed mRNA in the presence of chemical substance/The level of expressed mRNA in the absence of chemical substance (yeast gene YER069W): 1.3
- level of expressed mRNA in the presence/in the absence of chemical substance (yeast gene YER081W): 1.1
- The level of expressed mRNA in the presence of chemical substance/The level of expressed mRNA in the absence of chemical substance (yeast gene YER096W): 1.2
- level of expressed mRNA in the presence/in the absence of chemical substance (yeast gene YER120W): 1.5
- The level of expressed mRNA in the presence of chemical substance/The level of expressed mRNA in the absence of chemical substance (yeast gene YER178W): 2.5
- level of expressed mRNA in the presence/in the absence of chemical substance (yeast gene YFL011W): 1.0
- The level of expressed mRNA in the presence of chemical substance/The level of expressed mRNA in the absence of chemical substance (yeast gene YFL014W): 9.3
- The level of expressed mRNA in the presence of chemical substance/The level of expressed mRNA in the absence of chemical substance (yeast gene YFL030W): 1.3
- The level of expressed mRNA in the presence of chemical substance/The level of expressed mRNA in the absence of chemical substance (yeast gene YFL031W): 0.3
- The level of expressed mRNA in the presence of chemical substance/The level of expressed mRNA in the absence of chemical substance (yeast gene YFL056C): 0.6
- The level of expressed mRNA in the presence of chemical substance/The level of expressed mRNA in the absence of chemical substance (yeast gene YFL057C): 1.2
- The level of expressed mRNA in the presence of chemical substance/The level of expressed mRNA in the absence of chemical substance (yeast gene YFR047C): 2.0
- level of expressed mRNA in the presence/in the absence of chemical substance (yeast gene YGL012W): 1.6
- The level of expressed mRNA in the presence of chemical substance/The level of expressed mRNA in the absence of chemical substance (yeast gene YGL022W): 0.9
- level of expressed mRNA in the presence/in the absence of chemical substance (yeast gene YGL115W): 1.2
- The level of expressed mRNA in the presence of chemical substance/The level of expressed mRNA in the absence of chemical substance (yeast gene YGL126W): 1.6
- level of expressed mRNA in the presence/in the absence of chemical substance (yeast gene YGL205W): 1.6
- The level of expressed mRNA in the presence of chemical substance/The level of expressed mRNA in the absence of chemical substance (yeast gene YGL209W): 1.0
- The level of expressed mRNA in the presence of chemical substance/The level of expressed mRNA in the absence of chemical substance (yeast gene YGL248W): 2.7
- The level of expressed mRNA in the presence of chemical substance/The level of expressed mRNA in the absence of chemical substance (yeast gene YGL253W): 2.4
- The level of expressed mRNA in the presence of chemical substance/The level of expressed mRNA in the absence of chemical substance (yeast gene YGR037C): 1.1
- The level of expressed mRNA in the presence of chemical substance/The level of expressed mRNA in the absence of chemical substance (yeast gene YGR055W): 1.1
- level of expressed mRNA in the presence/in the absence of chemical substance (yeast gene YGR096W): 1.7
- level of expressed mRNA in the presence/in the absence of chemical substance (yeast gene YGR191W): 1.1
- The level of expressed mRNA in the presence of chemical substance/The level of expressed mRNA in the absence of chemical substance (yeast gene YGR194C): 1.9
- level of expressed mRNA in the presence/in the absence of chemical substance (yeast gene YGR204W): 0.6
- The level of expressed mRNA in the presence of chemical substance/The level of expressed mRNA in the absence of chemical substance (yeast gene YGR244C): 2.6
- The level of expressed mRNA in the presence of chemical substance/The level of expressed mRNA in the absence of chemical substance (yeast gene YGR256W): 6.2
- The level of expressed mRNA in the presence of chemical substance/The level of expressed mRNA in the absence of chemical substance (yeast gene YGR282C): 2.2
- level of expressed mRNA in the presence/in the absence of chemical substance (yeast gene YHR025W): 0.8
- The level of expressed mRNA in the presence of chemical substance/The level of expressed mRNA in the absence of chemical substance (yeast gene YHR111W): 1.3
- level of expressed mRNA in the presence/in the absence of chemical substance (yeast gene YHR123W): 1.0
- The level of expressed mRNA in the presence of chemical substance/The level of expressed mRNA in the absence of chemical substance (yeast gene YHR137W): 0.7
- The level of expressed mRNA in the presence of chemical substance/The level of expressed mRNA in the absence of chemical substance (yeast gene YHR174W): 1.5
- The level of expressed mRNA in the presence of chemical substance/The level of expressed mRNA in the absence of chemical substance (yeast gene YHR176W): 2.3
- level of expressed mRNA in the presence/in the absence of chemical substance (yeast gene YHR210C): 0.7
- level of expressed mRNA in the presence/in the absence of chemical substance (yeast gene YIL006W): 0.3
- The level of expressed mRNA in the presence of chemical substance/The level of expressed mRNA in the absence of chemical substance (yeast gene YIL045W): 1.7
- The level of expressed mRNA in the presence of chemical substance/The level of expressed mRNA in the absence of chemical substance (yeast gene YIL107C): 1.0
- The level of expressed mRNA in the presence of chemical substance/The level of expressed mRNA in the absence of chemical substance (yeast gene YIL154C): 1.1
- The level of expressed mRNA in the presence of chemical substance/The level of expressed mRNA in the absence of chemical substance (yeast gene YIL155C): 1.4
- The level of expressed mRNA in the presence of chemical substance/The level of expressed mRNA in the absence of chemical substance (yeast gene YIL167W): 7.7
- The level of expressed mRNA in the presence of chemical substance/The level of expressed mRNA in the absence of chemical substance (yeast gene YIR034C): 1.3
- The level of expressed mRNA in the presence of chemical substance/The level of expressed mRNA in the absence of chemical substance (yeast gene YIR036C): 0.7
- The level of expressed mRNA in the presence of chemical substance/The level of expressed mRNA in the absence of chemical substance (yeast gene YJL031C): 1.6
- The level of expressed mRNA in the presence of chemical substance/The level of expressed mRNA in the absence of chemical substance (yeast gene YJL068C): 1.1
- The level of expressed mRNA in the presence of chemical substance/The level of expressed mRNA in the absence of chemical substance (yeast gene YJL088W): 2.8
- The level of expressed mRNA in the presence of chemical substance/The level of expressed mRNA in the absence of chemical substance (yeast gene YJL099W): 2.0
- level of expressed mRNA in the presence/in the absence of chemical substance (yeast gene YJL121C): 1.1
- level of expressed mRNA in the presence/in the absence of chemical substance (yeast gene YJL167W): 1.3
- The level of expressed mRNA in the presence of chemical substance/The level of expressed mRNA in the absence of chemical substance (yeast gene YJL172W): 3.8
- The level of expressed mRNA in the presence of chemical substance/The level of expressed mRNA in the absence of chemical substance (yeast gene YJL219W): 1.5
- The level of expressed mRNA in the presence of chemical substance/The level of expressed mRNA in the absence of chemical substance (yeast gene YJL221C): 6.6
- level of expressed mRNA in the presence/in the absence of chemical substance (yeast gene YJR077C): 0.9
- The level of expressed mRNA in the presence of chemical substance/The level of expressed mRNA in the absence of chemical substance (yeast gene YJR137C): 1.5
- level of expressed mRNA in the presence/in the absence of chemical substance (yeast gene YJR143C): 0.6
- The level of expressed mRNA in the presence of chemical substance/The level of expressed mRNA in the absence of chemical substance (yeast gene YJR148W): 2.0
- The level of expressed mRNA in the presence of chemical substance/The level of expressed mRNA in the absence of chemical substance (yeast gene YJR155W): 1.4
